Results: patent US20210392892A1, “COMPOSITIONS COMPRISING PYRIDINE CARBOXYLATE HERBICIDES AND ACETYL COA CARBOXYLASE (ACCASE) INHIBITOR HERBICIDES” (Corteva Agriscience LLC, priority 2018, published 2021)

How the values were obtained:
Experiment in all cases: Greenhouse postemergence herbicidal effect (visual injury)
Format in all cases: in vivo
[1] = system: BRSNW, Brassica napus (winter rape)
Text: (§1) Seeds of the desired test plant species were planted in a 90:10% v/v (volume/volume) mixture of PRO-MIX® BX (Premier Tech Horticulture, Quakertown, Pa., USA) and PROFILE® GREENS GRADE™ (Profile Products LLC, Buffalo Grove, Ill., USA) planting mixture, which typically has a pH of 5.2 to 6.2 and an organic matter content of at least 50 percent, in plastic pots with a surface area of 103.2 square centimeters (cm^2). In some aspects, to help ensure good germination and healthy plants, a fungicide treatment and/or other chemical or physical treatment was applied. The plants were grown for 7-36 days (d) in a greenhouse with an approximate 14-hour (h) photoperiod which was maintained at about 23° C. during the day and 22° C. during the night. Nutrients and water were added on a regular basis and supplemental lighting was provided with overhead metal halide 1000-Watt lamps as necessary. The plants were employed for testing when they reached the second or third true leaf stage.
(§2) Emulsifiable concentrates of each of each pyridine carboxylate herbicide (Compound A or Compound B) were prepared at 100 grams acid equivalent per liter (g ae/L). The emulsifiable concentrates also included a safener, cloquintocet-mexyl, at 120 grams active ingredient per liter (g ai/L), unless otherwise noted below. An aliquot of each emulsifiable concentrate was placed in a 25 mL glass vial and diluted with an aqueous mixture of 1.25% (v/v) ACTIROB® B esterified rapeseed oil (Bayer Crop Science, Research Triangle Park, N.C., USA) or MSO® Concentrate with LECI-TECH® methylated soybean oil (Loveland Products, Loveland, Colo., USA) to obtain concentrated stock solutions at the highest application rate for each herbicide, based upon a 12 milliliter (mL) application volume at a rate of 187 liters per hectare (L/ha). The concentrated stock solutions were further diluted with an aqueous mixture of 1.25% v/v ACTIROB® B or MSO® Concentrate with LECI-TECH® to obtain stock solutions at reduced application rates for each herbicide. Spray solutions of the herbicide combinations (Compound A or Compound B plus ACCase inhibitor herbicide) were prepared by adding weighed amounts or aliquots of the ACCase inhibitor herbicide to the stock solutions of Compound A or Compound B to form 12-mL spray solutions in two-way combinations.
(§3) The spray solutions were applied to the plant material with an overhead Mandel track sprayer equipped with 8002E nozzles calibrated to deliver 187 L/ha over an application area of 0.503 square meters (m^2) at a spray height of 18 inches (43 centimeters (cm)) above the average plant canopy. Control plants were sprayed in the same manner with the solvent blank. All pyridine carboxylate herbicide (component a) application rates are given as “g ae/ha” and all ACCase inhibitor herbicide (component b) application rates are given as “g ai/ha.”
(§4) The treated plants and control plants were placed in a greenhouse as described above and watered by sub-irrigation to prevent wash-off of the test compounds. After 20-22 d, the condition of the test plants as compared with that of the control plants was determined visually and scored on a scale of 0 to 100 percent where 0 corresponds to no injury and 100 corresponds to complete kill.

[2] = system: BRAPP, Brachiaria platyphylla (broadleaf signalgrass); settings: with cloquintocet-mexyl
Text: as §1, §2, §3, §4

[3] = system: STEME, Stellaria media (chickweed)
Text: as §1, §2, §3, §4

[4] = system: SORVU, Sorghum vulgare (grain sorghum)
Text: as §1, §2, §3, §4

[5] = system: ORYSA, Oryza sativa (common rice); settings: with cloquintocet-mexyl
Text: as §1, §2, §3, §4

ZEAMX, Zea mays (maize) = settings: with cloquintocet-mexyl
Text: as §1, §2, §3, §4

[6] = system: CIRAR, Cirsium arvense (Canadian thistle)
Text: as §1, §2, §3, §4

[7] = system: POLCO, Polygonum convolvulus (wild buckwheat)
Text: as §1, §2, §3, §4

[8] = system: ABUTH, Abutilon theophrasti (velvetleaf)
Text: as §1, §2, §3, §4

[9] = system: SETFA, Setaria faberi (giant foxtail)
Text: as §1, §2, §3, §4

[10] = system: IPOHE, Ipomoea hederacea (ivyleaf morningglory)
Text: as §1, §2, §3, §4

[11] = system: LOLMG, Lolium multiflorum subsp. gaudini (annual ryegrass); settings: with cloquintocet-mexyl
Text: as §1, §2, §3, §4

[12] = system: CYPDI, Cyperus difformis (small-flower flatsedge); settings: with cloquintocet-mexyl
Text: as §1, §2, §3, §4

[13] = system: BRSNN, Brassica napus (spring rape); settings: with cloquintocet-mexyl
Text: as §1, §2, §3, §4

[14] = system: GLXMA, Glycine max (soybean)
Text: as §1, §2, §3, §4

[15] = system: VIOTR, Viola tricolor (wild pansy)
Text: as §1, §2, §3, §4

[16] = 7.5 g ae/ha, without cloquintocet-mexyl
[17] = 10 g ae/ha, without cloquintocet-mexyl
[18] = 7.5 g ae/ha, with cloquintocet-mexyl
[19] = 10 g ae/ha, with cloquintocet-mexyl

Compound: N#CCOC(=O)c1nc(-c2ccc3cc[nH]c3c2F)c(F)c(N)c1Cl [Compound A, cyanomethyl 4-amino-3-chloro-5-fluoro-6-(7-fluoro-1H-indol-6-yl)pyridine-2-carboxylate]
- % visual injury, Obs [1, 16]: 50%
- % visual injury, Obs [1, 17]: 65%
- % visual injury, Obs ([1]; BRSNW, Compound A 7.5 g/ha, Fluazifop 0 g/ha): 50%
- % visual injury, Obs ([1]; BRSNW, Compound A 10 g/ha, Fluazifop 0 g/ha): 65%
- % visual injury, Obs ([2]; 7.5 g ae/ha): 43%
- % visual injury, Obs ([2]; 10 g ae/ha): 68%
- % visual injury, Obs [3, 18]: 90%
- % visual injury, Obs [3, 16]: 73%
- % visual injury, Obs [3, 19]: 85%
- % visual injury, Obs [3, 17]: 88%
- % visual injury, Obs ([3]; STEME, Compound A 7.5 g/ha, Fluazifop 0 g/ha): 73%
- % visual injury, Obs ([3]; STEME, Compound A 10 g/ha, Fluazifop 0 g/ha): 88%
- % visual injury, Obs [4, 16]: 0%
- % visual injury, Obs [4, 17]: 0%
- % visual injury, Obs ([4]; SORVU, Compound A 7.5 g/ha, Fluazifop 0 g/ha): 0%
- % visual injury, Obs ([4]; SORVU, Compound A 10 g/ha, Fluazifop 0 g/ha): 0%
- % visual injury, Obs ([5]; 7.5 g ae/ha): 0%
- % visual injury, Obs ([5]; 10 g ae/ha): 0%
- % visual injury, Obs (ZEAMX, Zea mays (maize); 7.5 g ae/ha): 0%
- % visual injury, Obs (ZEAMX, Zea mays (maize); 10 g ae/ha): 0%
- % visual injury, Obs [6, 16]: 40%
- % visual injury, Obs [6, 17]: 28%
- % visual injury, Obs ([6]; CIRAR, Compound A 7.5 g/ha, Fluazifop 0 g/ha): 40%
- % visual injury, Obs ([6]; CIRAR, Compound A 10 g/ha, Fluazifop 0 g/ha): 28%
- % visual injury, Obs [7, 16]: 80%
- % visual injury, Obs [7, 17]: 78%
- % visual injury, Obs ([7]; POLCO, Compound A 7.5 g/ha, Fluazifop 0 g/ha): 80%
- % visual injury, Obs ([7]; POLCO, Compound A 10 g/ha, Fluazifop 0 g/ha): 78%
- % visual injury, Obs [8, 16]: 70%
- % visual injury, Obs [8, 17]: 75%
- % visual injury, Obs ([8]; ABUTH, Compound A 7.5 g/ha, Fluazifop 0 g/ha): 70%
- % visual injury, Obs ([8]; ABUTH, Compound A 10 g/ha, Fluazifop 0 g/ha): 75%
- % visual injury, Obs [9, 18]: 0%
- % visual injury, Obs [9, 19]: 0%
- % visual injury, Obs ([9]; SETFA, Compound A 7.5 g/ha, Fluazifop 0 g/ha): 0%
- % visual injury, Obs ([9]; SETFA, Compound A 7.5 g/ha, Haloxyfop-R-methyl 0 g/ha): 63%
- % visual injury, Obs ([9]; SETFA, Compound A 7.5 g/ha, Quizalofop-P-ethyl 0 g/ha): 63%
- % visual injury, Obs ([9]; SETFA, Compound A 10 g/ha, Fluazifop 0 g/ha): 0%
- % visual injury, Obs ([9]; SETFA, Compound A 10 g/ha, Haloxyfop-R-methyl 0 g/ha): 60%
- % visual injury, Obs ([9]; SETFA, Compound A 10 g/ha, Quizalofop-P-ethyl 0 g/ha): 60%
- % visual injury, Obs [10, 16]: 10%
- % visual injury, Obs [10, 17]: 15%
- % visual injury, Obs ([10]; IPOHE, Compound A 7.5 g/ha, Fluazifop 0 g/ha): 10%
- % visual injury, Obs ([10]; IPOHE, Compound A 10 g/ha, Fluazifop 0 g/ha): 15%
- % visual injury, Obs ([11]; 7.5 g ae/ha): 0%
- % visual injury, Obs ([11]; 10 g ae/ha): 3%
- % visual injury, Obs ([12]; 7.5 g ae/ha): 60%
- % visual injury, Obs ([12]; 10 g ae/ha): 72%
- % visual injury, Obs ([13]; 7.5 g ae/ha): 23%
- % visual injury, Obs ([13]; 10 g ae/ha): 45%
- % visual injury, Obs [14, 16]: 85%
- % visual injury, Obs [14, 17]: 85%
- % visual injury, Obs ([14]; GLXMA, Compound A 7.5 g/ha, Fluazifop 0 g/ha): 85%
- % visual injury, Obs ([14]; GLXMA, Compound A 10 g/ha, Fluazifop 0 g/ha): 85%
- % visual injury, Obs [15, 16]: 8%
- % visual injury, Obs [15, 17]: 15%
- % visual injury, Obs ([15]; VIOTR, Compound A 7.5 g/ha, Fluazifop 0 g/ha): 8%
- % visual injury, Obs ([15]; VIOTR, Compound A 10 g/ha, Fluazifop 0 g/ha): 15%
